Reference: US10300026B2, “Use of dihydroxyacetone in preparation of anti-cancer medicaments” (priority 2015, dated 2019)
pIC50: −log10 of the molar value. Like-named read-outs stand apart in the source and are kept apart here.

Legend:
[1] = system: human large cell lung cancer H460 cell transplantation tumor; assay: H460 cell transplantation tumor model in naked mice; format: in vivo, Balb/c-nude naked mice; conditions: for TV (mm^3) D1 / Body weight (g) D1: D1 (first day of administration); for Effect of tumor inhibition: vs blank; for Tumor Weight TW: tumors taken out at sacrifice on 22th day; for Tumor Weight Inhibition Rate IR (%): vs blank control group tumor weight
Method: Naked mice were subcutaneously inoculated with H460 cells (human large cell lung cancer cell line). When tumors grew to about 100 mm^3, 36 naked mice with similar tumor volume and good shape were selected from 70 naked mice, divided into 6 groups with 6 animals in each group;
Cisplatin: 4 mg/kg, volume of injection was 0.1 mL/10 g, i.p, administration once every 5 days, three weeks in total;
Cisplatin group: 4 mg/kg, volume of injection was 0.1 mL/10 g, i.p, administration once every 5 days, three weeks in total;
Blank group: 0.9% sodium chloride injection, mode of administration was same as DHA group.
3.1.3 Naked mice were inoculated subcutaneously at the right side of back, 0.1 mL/mouse, i.e. each naked mouse was inoculated 2×10^6 cells;
3.2.1 When tumors grew to about 100 mm^3, 36 naked mice with similar tumor volume and good shape were selected from 70 naked mice, and divided into 6 groups with 6 animals in each group.
The mixture was refrigerated at 4° C. when not used. […] 4 mL of 0.6 mg/mL cisplatin solution were measured and added with 2.0 mL physiological saline to formulate a 0.4 mg/mL (4 mg/kg) cisplatin solution. The solution was refrigerated at 4° C. when not used.
The tumor volume and body weight were measured three times per week from the first day of administration. Naked mice were sacrificed on 22th day. The tumors were taken out, weighed and photographed. The tumor inhibition rate was calculated.
The calculation formula is: TV=½×a×b^2, where a and b represents length and width, respectively.
The calculation formula is: RTV=TVt/TV1, where TV1 is a tumor volume when being caged and administrated (i.e., d1), TVt is a tumor volume at each measurement.
The calculation formula is: […]
TRTV: RTV of treatment group; CRTV: RTV of blank control group.
TTW: tumor weight of treatment group; CTW: tumor weight of blank control group; TW: tumor weight.

A2780 = assay: CellTiter-Glo cell viability, A2780 (human ovarian cancer cell line); format: cell-based
Method: (§1) 15 g of the commercially available 1,3-dihydroxyacetone in the solid powder form was added into 100 mL of 5% glucose (infusion bottle), then filled into 100 bottles.
(§2) After digesting the cells and counting (counting suspended cells directly), the cells were diluted to 1.25×10^5 cells/ml, inoculated into a 384-well plate (5000 cells/well) with 40 μl per well, centrifuged at 1500 rpm for 1 min, placed into the incubator and incubated overnight.
(§3) The medicaments were diluted in gradient with a 5% glucose solution to 5×, respectively. Each well was dosed with 10 μl medicament, with 4 wells (n=4) for each concentration. The cell viability was measured with Luminescence Cell Viability Assay kit after incubating for 72 hours in an incubator.
(§4) CellTiter-Glo reagent was added into each well, the volume of which is the same as that of medium. It was shaked on a shaker for 5 min, centrifuged at 1500 rpm for 1 min, and incubated in the dark at room temperature for 15 min. Then the chemiluminescence was detected with BMG PHERAstar.
(§5) The cell viability was calculated by using the following formula: Cell viability (Viability %)=100%×(LUMsample to be measured−LUMblank)/(LUMsolvent control−LUMblank)
(§6) The curve of Log[concentration] versus cell viability was fitted using Prism 6 to calculate IC50 of sample for each cell line.

H460 = assay: CellTiter-Glo cell viability, H460 (human large cell lung cancer cell line); format: cell-based
Method: as §1, §2, §3, §4, §5, §6

RPMI8226 = assay: CellTiter-Glo cell viability, RPMI8226 (multiple myeloma); format: cell-based
Method: as §1, §2, §3, §4, §5, §6

DU145 = assay: CellTiter-Glo cell viability, DU145 (human prostate cancer cell); format: cell-based
Method: as §1, §2, §3, §4, §5, §6

HL-60 = assay: CellTiter-Glo cell viability, HL-60 (human leukemic cell line); format: cell-based
Method: as §1, §2, §3, §4, §5, §6

SW620 = assay: CellTiter-Glo cell viability, SW620 (human colon cancer cell); format: cell-based
Method: as §1, §2, §3, §4, §5, §6

SH-SY5Y = assay: CellTiter-Glo cell viability, SH-SY5Y (human neuroblastoma cell); format: cell-based
Method: as §1, §2, §3, §4, §5, §6

HCT116 = assay: CellTiter-Glo cell viability, HCT116 (human colon cancer cell); format: cell-based
Method: as §1, §2, §3, §4, §5, §6

A673 = assay: CellTiter-Glo cell viability, A673 (human rhabdomyoma cell); format: cell-based
Method: as §1, §2, §3, §4, §5, §6

T24 = assay: CellTiter-Glo cell viability, T24 (human bladder transitional cell carcinoma cell); format: cell-based
Method: as §1, §2, §3, §4, §5, §6

A549 = assay: CellTiter-Glo cell viability, A549 (human non-small cell lung cancer cell); format: cell-based
Method: as §1, §2, §3, §4, §5, §6

HCC1937 = assay: CellTiter-Glo cell viability, HCC1937 (human breast cancer cell); format: cell-based
Method: as §1, §2, §3, §4, §5, §6

HT29 = assay: CellTiter-Glo cell viability, HT29 (human colon cancer cell line); format: cell-based
Method: as §1, §2, §3, §4, §5, §6

Jurkat = assay: CellTiter-Glo cell viability, Jurkat (human T lymphoblastic leukemia cell); format: cell-based
Method: as §1, §2, §3, §4, §5, §6

S180 = assay: CellTiter-Glo cell viability, S180 (S180 sarcoma cells); format: cell-based
Method: as §1, §2, §3, §4, §5, §6

BEL-7402 = assay: CellTiter-Glo cell viability, BEL-7402 (human hepatoma cell line); format: cell-based
Method: as §1, §2, §3, §4, §5, §6

FaDu = assay: CellTiter-Glo cell viability, FaDu (human pharyngeal squamous cell); format: cell-based
Method: as §1, §2, §3, §4, §5, §6

WIL2-S = assay: CellTiter-Glo cell viability, WIL2-S (human B lymphocyte); format: cell-based
Method: as §1, §2, §3, §4, §5, §6

C-33A = assay: CellTiter-Glo cell viability, C-33A (human cervical cancer cell); format: cell-based
Method: as §1, §2, §3, §4, §5, §6

SW480 = assay: CellTiter-Glo cell viability, SW480 (human colorectal cancer cell); format: cell-based
Method: as §1, §2, §3, §4, §5, §6

HCCLM3 = assay: CellTiter-Glo cell viability, HCCLM3 (human high metastatic hepatoma cell); format: cell-based
Method: as §1, §2, §3, §4, §5, §6

[2] = H460 tumor naked mice, cisplatin 4 mg/kg i.p. once every 5 days, DHA p.o. 0.1 mL/10 g bid
[3] = D20, H460 tumor naked mice, cisplatin 4 mg/kg i.p. once every 5 days, DHA p.o. 0.1 mL/10 g bid
[4] = cisplatin 4 mg/kg i.p. once every 5 days, DHA p.o. 0.1 mL/10 g bid
[5] = Homo sapiens, 72 h, read-out: IC50 calculated based on the concentration of dihydroxyacetone

SMILES: N.N.[Cl][Pt][Cl] [DDP, cis-diammine platinum dichloride, reference compound]
- TV (mm^3) D1 ([1]; H460 tumor naked mice): 90.30 ± 5.61 mm^3
- Body weight (g) D1 [1, 2]: 21.1 ± 0.9 g
- Body weight (g) D20 [1, 3]: 17.6 ± 0.7 g
- TV (mm^3) D20 [1, 3]: 972.1 ± 289.5 mm^3
- Body temperature ([1]; H460 tumor naked mice): decreased
- Effect of tumor inhibition ([1]; H460 tumor naked mice): significant effect of tumor inhibition
- Body weight during the whole test ([1]; H460 tumor naked mice, whole test): decreased significantly
- Body weight decrease at the end of the test ([1]; end of the test, H460 tumor naked mice): about 16.7%
- Tumor Weight TW [1, 4]: 0.65 ± 0.23 g
- Tumor Weight Inhibition Rate IR (%) [1, 4]: 44.6%
- pIC50 (A2780; A2780, 72 hours, n=4, read-out: IC50): 4.49
- pIC50 (H460; H460, 72 hours, n=4, read-out: IC50): 5.78
- pIC50 (RPMI8226; RPMI8226, 72 hours, n=4, read-out: IC50): 5.24
- pIC50 (DU145; DU145, 72 hours, n=4, read-out: IC50): 5.34
- pIC50 (HL-60; HL-60, 72 hours, n=4, read-out: IC50): 5.74
- pIC50 (SW620; SW620, 72 hours, n=4, read-out: IC50): 4.61
- pIC50 (SH-SY5Y; 72 hours, n=4, read-out: IC50): 5.54
- pIC50 (HCT116; HCT116, 72 hours, n=4, read-out: IC50): 4.64
- pIC50 (A673; A673, 72 hours, n=4, read-out: IC50): 5.95
- pIC50 (T24; T24, 72 hours, n=4, read-out: IC50): 5.21
- pIC50 (A549; A549, 72 hours, n=4, read-out: IC50): 5.39
- pIC50 (HCC1937; HCC1937, 72 hours, n=4, read-out: IC50): 4.83
- pIC50 (HT29; HT29, 72 hours, n=4, read-out: IC50): 4.31
- pIC50 (Jurkat; 72 hours, n=4, read-out: IC50): 6.18
- pIC50 (S180; S180, 72 hours, n=4, read-out: IC50): 6.59
- pIC50 (BEL-7402; BEL-7402, 72 hours, n=4, read-out: IC50): 5.27
- pIC50 (FaDu; 72 hours, n=4, read-out: IC50): 4.94
- pIC50 (WIL2-S; WIL2-S, 72 hours, n=4, read-out: IC50): 5.00
- pIC50 (C-33A; C-33A, 72 hours, n=4, read-out: IC50): 5.55
- pIC50 (SW480; SW480, 72 hours, n=4, read-out: IC50): 4.78
- pIC50 (HCCLM3; HCCLM3, 72 hours, n=4, read-out: IC50): 3.74

SMILES: O=C(CO)CO [Dihydroxyacetone, 1,3-dihydroxyacetone]
- TV (mm^3) D1 ([1]; H460 tumor naked mice): 90.47 ± 9.91 mm^3
- Body weight (g) D1 [1, 2]: 21.4 ± 0.7 g
- Body weight (g) D20 [1, 3]: 23.7 ± 1.3 g
- TV (mm^3) D20 [1, 3]: 2300.4 ± 585.1 mm^3
- RTV D20 (relative tumor volume) ([1]; D20, RTV=TVt/TV1, cisplatin 4 mg/kg i.p. once every 5 days, DHA p.o. 0.1 mL/10 g bid): 25.5 ± 6.2
- Effect of tumor inhibition ([1]; H460 tumor naked mice): did not exhibit a significant effect of tumor inhibition
- T/C (%) relative tumor proliferation rate ([1]; final, vs blank control group RTV, cisplatin 4 mg/kg i.p. once every 5 days, DHA p.o. 0.1 mL/10 g bid): 142.0%
- Toxic reaction ([1]; mouse, in vivo): no toxic reaction
- Tumor Weight TW [1, 4]: 1.76 ± 0.44 g
- Tumor Weight Inhibition Rate IR (%) [1, 4]: −50.6%
- pIC50 (A2780; Homo sapiens, A2780, 72 h, read-out: IC50 calculated based on the concentration of dihydroxyacetone): 1.97
- pIC50 (H460; Homo sapiens, NCI-H460, 72 h, read-out: IC50 calculated based on the concentration of dihydroxyacetone): 2.42
- pIC50 (RPMI8226; Homo sapiens, RPMI-8226, 72 h, read-out: IC50 calculated based on the concentration of dihydroxyacetone): 2.74
- pIC50 (DU145; Homo sapiens, DU-145, 72 h, read-out: IC50 calculated based on the concentration of dihydroxyacetone): 2.11
- pIC50 (HL-60; Homo sapiens, HL-60, 72 h, read-out: IC50 calculated based on the concentration of dihydroxyacetone): 2.56
- pIC50 (SW620; Homo sapiens, SW-620, 72 h, read-out: IC50 calculated based on the concentration of dihydroxyacetone): 2.07
- pIC50 (SH-SY5Y; [5]): 2.74
- pIC50 (HCT116; Homo sapiens, HCT-116, 72 h, read-out: IC50 calculated based on the concentration of dihydroxyacetone): 2.17
- pIC50 (A673; Homo sapiens, A673, 72 h, read-out: IC50 calculated based on the concentration of dihydroxyacetone): 2.42
- pIC50 (T24; Homo sapiens, T-24, 72 h, read-out: IC50 calculated based on the concentration of dihydroxyacetone): 2.12
- pIC50 (A549; Homo sapiens, A549, 72 h, read-out: IC50 calculated based on the concentration of dihydroxyacetone): 2.36
- pIC50 (HCC1937; Homo sapiens, HCC1937, 72 h, read-out: IC50 calculated based on the concentration of dihydroxyacetone): 1.99
- pIC50 (HT29; Homo sapiens, HT-29, 72 h, read-out: IC50 calculated based on the concentration of dihydroxyacetone): 2.36
- pIC50 (Jurkat; [5]): 2.74
- pIC50 (S180; S-180, 72 h, read-out: IC50 calculated based on the concentration of dihydroxyacetone): 3.02
- pIC50 (BEL-7402; Homo sapiens, Bel-7402, 72 h, read-out: IC50 calculated based on the concentration of dihydroxyacetone): 2.17
- pIC50 (FaDu; [5]): 2.03
- pIC50 (WIL2-S; Homo sapiens, Lymphocyte, 72 h, read-out: IC50 calculated based on the concentration of dihydroxyacetone): 1.92
- pIC50 (C-33A; Homo sapiens, C-33-A, 72 h, read-out: IC50 calculated based on the concentration of dihydroxyacetone): 2.29
- pIC50 (SW480; Homo sapiens, SW480, 72 h, read-out: IC50 calculated based on the concentration of dihydroxyacetone): 2.10
- pIC50 (HCCLM3; Homo sapiens, HCCLM3, 72 h, read-out: IC50 calculated based on the concentration of dihydroxyacetone): 2.26
